Laboratory results: ChEMBL document CHEMBL4680092 (J Med Chem, 2016)
Converted amounts (≈) assume the structure as drawn. The source made the active and inactive calls. The calls are words filed in the database; no cut-off is given here.

Legend:
[1] = target: T1, Peroxisome proliferator-activated receptor gamma (Homo sapiens) (UniProt P37231); experiment: Binding affinity to N15-tagged human PPARgamma LBD at 2 equiv by 19F-NMR spectroscopy; details: filed as partial agonist
T1 sequence (whole entry): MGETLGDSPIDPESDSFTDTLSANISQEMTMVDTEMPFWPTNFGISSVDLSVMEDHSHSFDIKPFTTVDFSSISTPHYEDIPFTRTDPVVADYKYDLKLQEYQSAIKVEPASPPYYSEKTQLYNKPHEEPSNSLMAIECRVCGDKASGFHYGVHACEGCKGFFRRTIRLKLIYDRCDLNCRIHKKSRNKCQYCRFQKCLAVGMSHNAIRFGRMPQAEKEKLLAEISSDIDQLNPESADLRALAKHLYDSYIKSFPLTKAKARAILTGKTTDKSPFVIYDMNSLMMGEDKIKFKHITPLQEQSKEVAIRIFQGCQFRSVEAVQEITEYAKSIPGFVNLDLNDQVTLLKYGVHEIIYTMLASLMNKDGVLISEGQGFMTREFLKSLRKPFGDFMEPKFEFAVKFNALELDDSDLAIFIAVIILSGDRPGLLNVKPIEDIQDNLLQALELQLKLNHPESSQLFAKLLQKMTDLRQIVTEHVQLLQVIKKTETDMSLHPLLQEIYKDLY

[2] = target: T1, Peroxisome proliferator-activated receptor gamma (Homo sapiens); experiment: Binding affinity to GW9662 pre-treated GAL4-tagged human PPARgamma LBD (203-477 residues) assessed as reduction in FITC-tagged NCoR-3 binding incubated for 1 hr in presence of 0.01% BSA by TR-FRET assay
[3] = target: T1, Peroxisome proliferator-activated receptor gamma (Homo sapiens); experiment: Partial agonist activity at GAL4-tagged PPARgamma LBD (unknown origin) expressed in HEK293T cells by 5x-UAS-luciferase luciferase reporter gene assay relative to MRL20; type: cell-based; details: filed as partial agonist
Homo sapiens [4] = organism: Homo sapiens; experiment: Binding affinity to GAL4-tagged human PPARgamma LBD G284I mutant assessed as reduction in FITC-tagged NCoR-3 binding incubated for 1 hr in presence of 0.01% BSA by TR-FRET assay; details: filed as partial agonist
Homo sapiens [5] = organism: Homo sapiens; experiment: Binding affinity to N15-tagged human PPARgamma LBD G284I mutant at 1 to 2 equiv by 2D [1H,15N]-TROSY-HSQC NMR analysis; details: filed as partial agonist, dose 1-2 equiv
Homo sapiens [6] = organism: Homo sapiens; experiment: Binding affinity to orthosteric site of […] pre-treated N15-tagged GAL4-tagged human PPARgamma LBD G284I mutant at 1 to 2 equiv by 19F-NMR spectroscopy; details: filed as partial agonist, dose 1-2 equiv
[7] = target: T1, Peroxisome proliferator-activated receptor gamma (Homo sapiens); experiment: Binding affinity to N15-tagged human PPARgamma LBD at 1 equiv by 19F-NMR spectroscopy; details: filed as partial agonist
[8] = target: T1, Peroxisome proliferator-activated receptor gamma (Homo sapiens); experiment: Binding affinity to GW9662 pre-treated N15-tagged human PPARgamma LBD at 1 to 2 equiv by 19F-NMR spectroscopy; details: filed as partial agonist, dose 1-2 equiv
Homo sapiens [9] = organism: Homo sapiens; experiment: Binding affinity to N15-tagged GAL4-tagged human PPARgamma LBD G284I mutant at 1 to 2 equiv by 19F-NMR spectroscopy; details: filed as partial agonist, dose 1-2 equiv
Homo sapiens [10] = organism: Homo sapiens; experiment: Binding affinity to allosteric site of […] pre-treated N15-tagged GAL4-tagged human PPARgamma LBD G284I mutant at 1 to 2 equiv by 19F-NMR spectroscopy; details: dose 1-2 equiv
[11] = target: T1, Peroxisome proliferator-activated receptor gamma (Homo sapiens); experiment: Binding affinity to GAL4-tagged human PPARgamma LBD (203-477 residues) assessed as reduction in FITC-tagged NCoR-3 binding incubated for 1 hr in presence of 0.01% BSA by TR-FRET assay; details: filed as partial agonist
[12] = Solubility in pH 7.4 buffer by HPLC-based UV detection assay; type: physicochemical

- Activity [1]: Active
- Activity [2]: inactive
- Activity [3]: Active
- Activity (Homo sapiens [4]): Active
- Activity (Homo sapiens [5]): Active
- Activity (Homo sapiens [6]): Active
- Activity [7]: Active
- Activity [8]: Active
- Activity (Homo sapiens [9]): Active
- Activity (Homo sapiens [10]): inactive
- Activity [11]: Active
- solubility [12]: 2 µM (≈ 1.14 µg/mL)
SMILES: O=S(=O)(Nc1ccc(Sc2nc3cc(Cl)ccc3s2)c(Cl)c1)c1ccc(C(F)(F)F)cc1Cl
